Laboratory results from publication PMC12626222, “Benzoic and salicylic acids inhibit β-substituted alanine synthase 4;1 in common bean” (Plant Physiology, 2025).

How the values were obtained:
[1] = target: T1, PvBSAS4;1 (beta-substituted alanine synthase 4;1, cytosolic cysteine synthase) (Phaseolus vulgaris, UniProt V7BIJ9); assay: X-ray crystal structure, […] Å; format: binding
T1 construct: gene PHAVU_007G185200g

[2] = target: T1, PvBSAS4;1 (beta-substituted alanine synthase 4;1, cytosolic cysteine synthase); assay: acid-ninhydrin colorimetric assay of cysteine formation, […] nm; format: biochemical
[3] = target: T1, PvBSAS4;1 (beta-substituted alanine synthase 4;1, cytosolic cysteine synthase); assay: acid-ninhydrin colorimetric assay, Lineweaver-Burk plot; format: biochemical; conditions: 2 to 8 mM O-acetylserine, 1.5 mM sodium sulfide, 100 mM MOPSO pH 7.0, 25 °C; apparent values plotted against benzoic acid concentration

T1 sequence (V7BIJ9 entry or part of it): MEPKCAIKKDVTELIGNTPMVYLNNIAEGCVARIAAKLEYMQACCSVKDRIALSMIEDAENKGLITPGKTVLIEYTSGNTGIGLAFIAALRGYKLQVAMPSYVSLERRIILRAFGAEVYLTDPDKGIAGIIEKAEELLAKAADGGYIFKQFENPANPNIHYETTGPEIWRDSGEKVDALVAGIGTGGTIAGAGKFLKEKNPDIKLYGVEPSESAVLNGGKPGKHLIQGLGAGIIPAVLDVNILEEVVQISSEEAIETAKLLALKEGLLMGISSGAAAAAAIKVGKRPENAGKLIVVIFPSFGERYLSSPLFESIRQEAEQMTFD

O=C(O)c1ccccc1 [BEZ, benzoic acid]
X-ray crystal structure, 1.60 Å ([1]; co-purified from E. coli, active site, near PLP (internal aldimine), carboxylate bound by Thr76, Ser77, Asn79, Thr80, Gln150): contains the PLP prosthetic group and a molecule of benzoic acid (Fig. 3A)
IC50 [2]: ~600 µM

CC(=O)OC[C@H](N)C(=O)O [OAS, O-acetylserine]
Ks app [3]: the replot of Ks app versus the concentration of inhibitor

Cc1ncc(COP(=O)(O)O)c(C=O)c1O [PLP, pyridoxal 5′-phosphate]
X-ray crystal structure, 1.60 Å ([1]; covalent internal aldimine with Lys48, co-purified): PLP is stabilized by a covalent bond to Lys48, creating an internal aldimine

O=C(O)c1ccccc1O [salicylic acid]
IC50 [2]: 600 µM
